Each structure is given as a SMILES string.

IC50 data for 34 molecules are collected here from patent US9303016B2, “Derivatives of aza adamantane and uses thereof” (CONNEXIOS LIFE SCIENCES PVT. LTD., priority 2011, dated 2016).

The target of the assay is T1, human full length HSD11β1 (Homo sapiens, UniProt P28845).
T1 construct: transient expression of human full length HSD11β1 expression vector; host or cells: CHO cells, transient transfection
T1 sequence (P28845 whole entry): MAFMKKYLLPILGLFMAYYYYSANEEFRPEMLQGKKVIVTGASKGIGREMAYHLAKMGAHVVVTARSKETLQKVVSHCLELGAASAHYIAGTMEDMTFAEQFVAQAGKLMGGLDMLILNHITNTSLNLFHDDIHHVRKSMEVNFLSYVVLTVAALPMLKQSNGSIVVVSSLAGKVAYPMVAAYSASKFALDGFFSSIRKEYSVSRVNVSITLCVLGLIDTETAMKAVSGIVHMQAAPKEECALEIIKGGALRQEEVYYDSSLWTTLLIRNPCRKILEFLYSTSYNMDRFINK
Kind of assay: In Vitro HSD11β1 Inhibition Assay. The assay is classed as cell-based. The note with it: CHO cells transiently expressing human HSD11β1; 200 nM cortisone+500 uM NADPH overnight; cortisone to cortisol by LC/MS-MS; read-out: 11βHSD1 (IC50). The procedure, abridged: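 Whole-cell assay in CHO cells transiently transfected with full-length human HSD11β1, re-seeded 24 h after transfection. Cells incubated overnight with 200 nM cortisone plus 500 uM NADPH, with or without inhibitor. Cortisone-to-cortisol conversion measured by LC/MS-MS; IC50 (nM) from an 8-point log concentration-inhibition curve.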
By IC50 is commonly meant the concentration at which inhibition is half-maximal. As to `O=C(CC(c1ccccc1)n1nnc2ccccc21)N1C2CC3CC1CC(O)(C3)C2` (stereo not shown) [Compound 121, 3-(1H-benzotriazol-1-yl)-1-(5-hydroxy-2-azatricyclo[3.3.1.1^3,7]dec-2-yl)-3-phenylpropan-1-one], the IC50 was over 250 nM.

On to `CC(CC(=O)N1C2CC3CC1CC(CC(=O)O)(C3)C2)c1c[nH]c2ccc(Cl)c(Br)c12` (stereo not shown) [Compound 162, {2-[3-(4-bromo-5-chloro-1H-indol-3-yl)butanoyl]-2-azatricyclo[3.3.1.1^3,7]dec-5-yl}acetic acid], for which the IC50 lay within 150 to 200 nM.

As to `CC(CC(=O)N1C2CC3CC1CC(C(=O)O)(C3)C2)c1c[nH]c2ccc(-c3ccccc3)cc12` (stereo not shown) [Compound 142, 2-[3-(5-phenyl-1H-indol-3-yl)butanoyl]-2-azatricyclo[3.3.1.1^3,7]decane-5-carboxylic acid], the IC50 was over 250 nM.

For `CC(CC(=O)N1C2CC3CC1CC(C(=O)O)(C3)C2)c1c[nH]c2cccc(Br)c12` (stereo not shown) [Example 55, 2-[3-(4-bromo-1H-indol-3-yl)butanoyl]-2-azatricyclo[3.3.1.1^3,7]decane-5-carboxylic acid], the IC50 was over 250 nM.

On to `CC(CC(=O)N1C2CC3CC1CC(O)(C3)C2)c1c[nH]c2ccccc12` (stereo not shown) [Example 20, 1-(5-hydroxy-2-azatricyclo[3.3.1.1^3,7]dec-2-yl)-3-(1H-indol-3-yl)butan-1-one], for which the IC50 was over 250 nM.

As to `CC(CC(=O)N1C2CC3CC1CC(O)(C3)C2)c1c[nH]c2cc(F)ccc12` (single isomer, unassigned) [Compound 97, 3-(6-fluoro-1H-indol-3-yl)-1-(5-hydroxy-2-azatricyclo[3.3.1.1^3,7]dec-2-yl)butan-1-one], the IC50 is over 250 nM.

Take `O=C(CCc1nc2ccccc2s1)N1C2CC3CC1CC(O)(C3)C2` [Example 12, 3-(1,3-benzothiazol-2-yl)-1-(5-hydroxy-2-azatricyclo[3.3.1.1^3,7]dec-2-yl)propan-1-one]: the IC50 is over 250 nM.

In the case of `CC(CC(=O)N1C2CC3CC1CC(C(=O)O)(C3)C2)c1c[nH]c2ncccc12` (stereo not shown) [Compound 91, 2-[3-(1H-pyrrolo[2,3-b]pyridin-3-yl)butanoyl]-2-azatricyclo[3.3.1.1^3,7]decane-5-carboxylic acid], the IC50 is over 250 nM.

`COc1c(C)ccc2[nH]cc(C(C)CC(=O)N3C4CC5CC3CC(O)(C5)C4)c12` (stereo not shown) [Compound 209, 1-(5-hydroxy-2-azatricyclo[3.3.1.1^3,7]dec-2-yl)-3-(4-methoxy-5-methyl-1H-indol-3-yl)butan-1-one]: the half-inhibitory concentration (IC50) is 200 to 250 nM.

For `CC(CC(=O)N1C2CC3CC1CC(Cl)(C3)C2)c1c[nH]c2cccc(F)c12` (stereo not shown) [Example 32, 1-(5-chloro-2-azatricyclo[3.3.1.1^3,7]dec-2-yl)-3-(4-fluoro-1H-indol-3-yl)butan-1-one], the IC50 lay within 150 to 200 nM.

For the molecule `Cc1[nH]c2ccc(F)cc2c1C(C)CC(=O)N1C2CC3CC1CC(O)(C3)C2` (stereo not shown) [Compound 113, 3-(5-fluoro-2-methyl-1H-indol-3-yl)-1-(5-hydroxy-2-azatricyclo[3.3.1.1^3,7]dec-2-yl)butan-1-one], the IC50 was over 250 nM.

With `CC(C)C(CC(=O)N1C2CC3CC1CC(O)(C3)C2)c1c[nH]c2ccccc12` (stereo not shown) [Example 23, 1-(5-hydroxy-2-azatricyclo[3.3.1.1^3,7]dec-2-yl)-3-(1H-indol-3-yl)-4-methylpentan-1-one], the IC50 is over 250 nM.

Consider `CC(CC(=O)N1C2CC3CC(C2)CC1C3)c1nc2ccccc2s1` (stereo not shown) [Compound 105, 1-(2-azatricyclo[3.3.1.1^3,7]dec-2-yl)-3-(1,3-benzothiazol-2-yl)butan-1-one], for which the IC50 is under 100 nM.

Consider `CC(CC(=O)N1C2CC3CC1CC(O)(C3)C2)c1c[nH]c2ccc(Cl)c(Cl)c12` (single isomer, unassigned) [Compound 172, 3-(4,5-dichloro-1H-indol-3-yl)-1-(5-hydroxy-2-azatricyclo[3.3.1.1^3,7]dec-2-yl)butan-1-one], for which the IC50 is over 250 nM.

For the molecule `CC(CC(=O)N1C2CC3CC1CC(O)(C3)C2)c1c[nH]c2ccccc12` (single isomer, unassigned) [Example 22, 1-(5-hydroxy-2-azatricyclo[3.3.1.1^3,7]dec-2-yl)-3-(1H-indol-3-yl)butan-1-one], the IC50 is over 250 nM.

Turning to `Cc1cccc2[nH]cc(CCC(=O)N3C4CC5CC(C4)CC3C5)c12` [Example 2, 1-(2-azatricyclo[3.3.1.1^3,7]dec-2-yl)-3-(4-methyl-1H-indol-3-yl)propan-1-one], the IC50 lay in the range of 100 to 150 nM.

Take `CC(CC(=O)N1C2CC3CC1CC(C(=O)O)(C3)C2)c1c[nH]c2cccc(Cl)c12` (stereo not shown) [Example 43, 2-[3-(4-chloro-1H-indol-3-yl)butanoyl]-2-azatricyclo[3.3.1.1^3,7]decane-carboxylic acid]: the IC50 is over 250 nM.

Consider `CC(CC(=O)N1C2CC3CC1CC(C#N)(C3)C2)c1nc2c(Cl)cccc2s1` (stereo not shown) [Compound 123, 2-[3-(4-chloro-1,3-benzothiazol-2-yl)butanoyl]-2-azatricyclo[3.3.1.1^3,7]decane-5-carbonitrile], for which the IC50 was over 250 nM.

Take `COc1ccc2[nH]cc(C(C)CC(=O)N3C4CC5CC(C4)CC3C5)c2c1` (stereo not shown) [Compound 226, 1-(2-azaadamantan-2-yl)-3-(5-methoxy-1H-indol-3-yl)butan-1-one]: the IC50 is under 100 nM.

`COC12CC3CC(C1)N(C(=O)CC(C)c1c[nH]c4cccc(F)c14)C(C3)C2` (stereo not shown) [Example 29, 3-(4-fluoro-1H-indol-3-yl)-1-(5-methoxy-2-azatricyclo[3.3.1.1^3,7]dec-2-yl)butan-1-one]: the IC50 lay in the range of 100 to 150 nM.

In the case of `Cc1c(F)ccc2[nH]cc(C(C)CC(=O)N3C4CC5CC3CC(O)(C5)C4)c12` (single isomer, unassigned) [Compound 148, 3-(5-fluoro-4-methyl-1H-indol-3-yl)-1-(5-hydroxy-2-azatricyclo[3.3.1.1^3,7]dec-2-yl)butan-1-one], the IC50 was under 100 nM.

In the case of `O=C(CC(c1c[nH]c2ccccc12)C1CC1)N1C2CC3CC1CC(O)(C3)C2` (stereo not shown) [Example 66, 3-cyclopropyl-1-(5-hydroxy-2-azatricyclo[3.3.1.1^3,7]dec-2-yl)-3-(1H-indol-3-yl)propan-1-one], the IC50 is over 250 nM.

Consider `CC(CC(=O)N1C2CC3CC1CC(Br)(C3)C2)c1c[nH]c2ccc(OS(=O)(=O)C(F)(F)F)cc12` (stereo not shown) [Compound 225, 3-(4-(5-bromo-2-azaadamantan-2-yl)-4-oxobutan-2-yl)-1H-indol-5-yl trifluoromethanesulfonate], for which the IC50 was over 250 nM.

On to `Cc1cccc2[nH]cc(C(CC(=O)N3C4CC5CC3CC(O)(C5)C4)c3ccccc3)c12` (stereo not shown) [Example 72, 1-(5-hydroxy-2-azatricyclo[3.3.1.1^3,7′]dec-2-yl)-3-(4-methyl-1H-indol-3-yl)-3-phenylpropan-1-one], for which the IC50 is over 250 nM.

Consider `CC(CC(=O)N1C2CC3CC1CC(O)(C3)C2)c1c[nH]c2ccccc12` (single isomer, unassigned) [Example 21, 1-(5-hydroxy-2-azatricyclo[3.3.1.1^3,7]dec-2-yl)-3-(1H-indol-3-yl)butan-1-one], for which the IC50 was over 250 nM.

For the molecule `CC(C)Oc1cccc2[nH]cc(C(C)CC(=O)N3C4CC5CC3CC(F)(C5)C4)c12` (single isomer, unassigned) [Compound 184, 1-(5-fluoro-2-azatricyclo[3.3.1.1^3,7]dec-2-yl)-3-[4-(propan-2-yloxy)-1H-indol-3-yl]butan-1-one], the IC50 was under 100 nM.

`CC(CC(=O)N1C2CC3CC1CC(O)(C3)C2)c1nc2ccc(Cl)cc2[nH]1` (stereo not shown) [Compound 202, 3-(6-chloro-1H-benzimidazol-2-yl)-1-(5-hydroxy-2-azatricyclo[3.3.1.1^3,7]dec-2-yl)butan-1-one]: the IC50 is over 250 nM.

On to `CC(CC(=O)N1C2CC3CC1CC(F)(C3)C2)c1nc2ccccc2s1` (stereo not shown) [Compound 106, 3-(1,3-benzothiazol-2-yl)-1-(5-fluoro-2-azatricyclo[3.3.1.1^3,7]dec-2-yl)butan-1-one], for which the IC50 was in the range of 100 to 150 nM.

For `CC(CC(=O)N1C2CC3CC1CC(O)(C3)C2)c1c[nH]c2cc(Cl)ccc12` (stereo not shown) [Example 69, 3-(6-chloro-1H-indol-3-yl)-1-(5-hydroxy-2-azatricyclo[3.3.1.1^3,7]dec-2-yl)butan-1-one], the IC50 lay in the range of 100 to 150 nM.

As to `CC(CC(=O)N1C2CC3CC1CC(C(=O)O)(C3)C2)c1c[nH]c2cccc(-c3ccc(F)cc3)c12` (stereo not shown) [Example 62, 2-{3-[4-(4-fluorophenyl)-1H-indol-3-yl]butanoyl}-2-azatricyclo[3.3.1.1^3,7]decane-5-carboxylic acid], the IC50 was over 250 nM.

As to `CC(CC(=O)N1C2CC3CC1CC(C(=O)O)(C3)C2)c1c[nH]c2cccc(C3CC3)c12` (single isomer, unassigned) [Example 53, 2-[3-(4-cyclopropyl-1H-indol-3-yl)butanoyl]-2-azatricyclo[3.3.1.1^3,7]decane-5-carboxylic acid], the concentration for half-maximal inhibition (IC50) was over 250 nM.

`CC(C)C(CC(=O)N1C2CC3CC1CC(O)(C3)C2)c1c[nH]c2cccc(F)c12` (stereo not shown) [Example 25, 3-(4-fluoro-1H-indol-3-yl)-1-(5-hydroxy-2-azatricyclo[3.3.1.1^3,7]dec-2-yl)-4-methylpentan-1-one]: the IC50 is over 250 nM.

Turning to `CC(CC(=O)N1C2CC3CC1CC(O)(C3)C2)c1c[nH]c2ncc(Cl)cc12` (stereo not shown) [Compound 135, 3-(5-chloro-1H-pyrrolo[2,3-b]pyridin-3-yl)-1-(5-hydroxy-2-azatricyclo[3.3.1.1^3,7]dec-2-yl)butan-1-one], the IC50 was over 250 nM.

Consider `COc1ccc2[nH]cc(C(C)CC(=O)N3C4CC5CC3CC(O)(C5)C4)c2c1C1CC1` (stereo not shown) [Compound 171, 3-(4-cyclopropyl-5-methoxy-1H-indol-3-yl)-1-(5-hydroxy-2-azatricyclo[3.3.1.1^3,7]dec-2-yl)butan-1-one], for which the half-maximal inhibitory concentration (IC50) lay in the range of 200 to 250 nM.
